Read-outs that look alike come from different tables or passages of the source.

For experiment [1], the target named is recombinant human Mcl-1 (residues 171-327) / Bim interaction (Homo sapiens (Human), UniProt Q07820). Description: biochemical. The class given is binding. The conditions noted are these: read-out: Mcl-1 HTRF IC50.
Experiment [2] concerns human multiple myeloma cell line, OPM-2. Kind of experiment: Cell viability assay (OPM-2 10 FBS), CellTiter-Glo. The class given is cell-based. Put shortly: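 3000 cells/well, RPMI 1640 + 10% FBS; serial compound dilutions, 16 h, 37 °C/5% CO2.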
Where [3] appears, read: 0.1 nM Mcl-1(171-327), 0.05 nM biotin-Bim (51-76).
Where [4] appears, read: Homo sapiens, OPM-2, 16 h, read-out: OPM-2 10% FBS IC50 IP, OPM-2 cells, 10% FBS, 16 h incubation.
The mark [5] stands for this setting: TR-FRET, Mcl-1(171-327) / biotin-Bim (51-76).
Where [6] appears, read: Homo sapiens, OPM-2, 16 h, read-out: OPM-2 10% FBS IC50 IP, OPM-2 cells, 10% FBS, 16 h, CellTiter-Glo.
The mark [7] stands for this setting: read-out: OPM-2 10% FBS IC50 IP, OPM-2 cells, 10% FBS, 16 h incubation.

recombinant human Mcl-1 (residues 171-327) / Bim interaction, sequence (Q07820 171-327): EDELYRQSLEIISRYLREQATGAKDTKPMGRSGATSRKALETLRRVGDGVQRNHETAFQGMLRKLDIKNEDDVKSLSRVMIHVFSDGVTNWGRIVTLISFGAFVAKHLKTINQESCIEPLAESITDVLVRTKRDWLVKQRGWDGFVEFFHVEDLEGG

Take `COCC[C@@H]1[C@@H](C)C/C=C/[C@@](CN2CCN3CCCC[C@@H]3C2)(OC)[C@@H]2CC[C@H]2CN2C[C@@]3(CCCc4cc(Cl)ccc43)COc3ccc(cc32)C(=O)NS1(=O)=O` [Example 181, (1S,3′R,6′R,7′R,8′E,11′S,12′R)-6-chloro-7′-methoxy-12′-(2-methoxyethyl)-11′-methyl-7′-((9aR)-octahydro-2H-pyrido[1,2-a]pyrazin-2-ylmethyl)-3,4-dihydro-2H,15′H-spiro[naphthalene-1,22′-[20]oxa[13]thia[1,14]diazatetracyclo [14.7.2.0~3,6~.0~19,24~]pentacosa[8,16,18,24]tetraen]-15′-one 13′,13′-dioxide]: the IC50 in experiment [1] (setting [3]) worked out at 0.324 nM; in experiment [2] (setting [4]) it was 74 nM.
As for `CO[C@@]1(CC2=N[C@H](C)C(=O)O2)/C=C/C[C@H](C)[C@@H](C)S(=O)(=O)NC(=O)c2ccc3c(c2)N(C[C@@H]2CC[C@H]21)C[C@@]1(CCCc2cc(Cl)ccc21)CO3` (stereo in doubt) [Example 100531], the values for the IC50 in experiment [1] (setting [5]) and in experiment [2] (setting [6]) were 0.083 nM and 172 nM, respectively.
Take `CC#C[C@]1(OC)CCC[C@H](C)[C@@H](C)S(=O)(=O)NC(=O)c2ccc3c(c2)N(C[C@@H]2CC[C@H]21)C[C@@]1(CCCc2cc(Cl)ccc21)CO3` [Example 100332, (1S,3′R,6′R,7′S,11′S,12′R)-6-chloro-7′-methoxy-11′,12′-dimethyl-7′-(1-propyn-1-yl)-3,4-dihydro-2H,15′H-spiro[naphthalene-1,22′-[20]oxa[13]thia[1,14]diazatetracyclo [14.7.2.0~3,6~.0~19,24~]pentacosa[16,18,24]trien]-15′-one 13′,13′-dioxide]: the IC50 in experiment [1] (setting [5]) amounted to 6.46 nM; in experiment [2] (setting [6]), 4310 nM.
Take `C[C@@H]1[C@@H](C)CCC[C@](O)(C2CCN(C)CC2)[C@@H]2CC[C@H]2CN2C[C@@]3(CCCc4cc(Cl)ccc43)COc3ccc(cc32)C(=O)NS1(=O)=O` [Example 100387, (1S,3′R,6′R,7′S,11′S,12′R)-6-chloro-7′-hydroxy-11′,12′-dimethyl-7′-(1-methyl-4-piperidinyl)-3,4-dihydro-2H,15′H-spiro[naphthalene-1,22′-[20]oxa[13]thia[1,14]diazatetracyclo [14.7.2.0~3,6~.0~19,24~]pentacosa[16,18,24]trien]-15′-one 13′,13′-dioxide]: the IC50 in experiment [1] (setting [5]) came out at 0.175 nM; in experiment [2] (setting [6]), 3760 nM.
For the compound `CO[C@]1(CN2CCN3C(=O)OC[C@@H]3C2)/C=C/C[C@H](C)[C@@H](C)S(=O)(=O)NC(=O)c2ccc3c(c2)N(C[C@@H]2CC[C@H]21)C[C@@]1(CCCc2cc(Cl)ccc21)CO3` [Example 64, (1S,3′R,6′R,7′R,8′E,11′S,12′R)-6-chloro-7′-methoxy-11′,12′-dimethyl-7′-(((8aS)-3-oxotetrahydro[1,3]oxazolo[3,4-a]pyrazin-7(1H)-yl)methyl)-3,4-dihydro-2H,15′H-spiro[naphthalene-1,22′-[20]oxa[13]thia[1,14]diazatetracyclo [14.7.2.0~3,6~.0~19,24~]pentacosa[8,16,18,24]tetraen]-15′-one 13′,13′-dioxide], the IC50 in experiment [1] (setting [3]) turned out to be 0.126 nM; in experiment [2] (setting [4]), 201 nM.
On to `CO[C@]1(CN2CC[C@H]3CCCC[C@@H]3C2)/C=C/C[C@H](C)[C@@H](C)S(=O)(=O)NC(=O)c2ccc3c(c2)N(C[C@@H]2CC[C@H]21)C[C@@]1(CCCc2cc(Cl)ccc21)CO3` (single isomer, unassigned) [Example 89], for which the figures for the IC50 in experiment [1] (setting [3]) and in experiment [2] (setting [7]) were 3.75 nM and 8210 nM, respectively.
Regarding `C[C@@H]1[C@@H](C)CCC[C@@](O)(COS(C)(=O)=O)[C@@H]2CC[C@H]2CN2C[C@@]3(CCCc4cc(Cl)ccc43)COc3ccc(cc32)C(=O)NS1(=O)=O` [Example 100283, ((1S,3′R,6′R,7′S,11′S,12′R)-6-chloro-7′-hydroxy-11′,12′-dimethyl-13′,13′-dioxido-15′-oxo-3,4-dihydro-2H-spiro[naphthalene-1,22′-[20]oxa[13]thia[1,14]diazatetracyclo [14.7.2.0~3,6~.0~19,24~]pentacosa[16,18,24]trien]-7′-yl)methyl methanesulfonate], the IC50 came to 0.143 nM in experiment [1] and 806 nM in experiment [2] (read-out: OPM-2 10% FBS IC50 IP, OPM-2 cells, 10% FBS, 16 h, CellTiter-Glo).
Regarding `C[C@@H]1[C@@H](C)C/C=C/[C@@](O)(COCCN2CCOCC2)[C@@H]2CC[C@H]2CN2C[C@@]3(CCCc4cc(Cl)ccc43)COc3ccc(cc32)C(=O)NS1(=O)=O` [Example 100355, (1S,3′R,6′R,7′S,8′E,11′S,12′R)-6-chloro-7′-hydroxy-11′,12′-dimethyl-7′-((2-(4-morpholinyl)ethoxy)methyl)-3,4-dihydro-2H,15′H-spiro[naphthalene-1,22′-[20]oxa[13]thia[1,14]diazatetracyclo [14.7.2.0~3,6~.0~19,24~]pentacosa[8,16,18,24]tetraen]-15′-one 13′,13′-dioxide], the IC50 came out at 0.535 nM in experiment [1] (setting [5]) and 776 nM in experiment [2] (setting [6]).
The corresponding values for `CO[C@]1(CCOS(C)(=O)=O)/C=C/C[C@H](C)[C@@H](C)S(=O)(=O)NC(=O)c2ccc3c(c2)N(C[C@@H]2CC[C@H]21)C[C@@]1(CCCc2cc(Cl)ccc21)CO3` [Example 100351, 2-((1S,3′R,6′R,7′R,8′E,11′S,12′R)-6-chloro-7′-methoxy-11′,12′-dimethyl-13′,13′-dioxido-15′-oxo-3,4-dihydro-2H-spiro[naphthalene-1,22′-[20]oxa[13]thia[1,14]diazatetracyclo [14.7.2.0~3,6~.0~19,24~]pentacosa[8,16,18,24]tetraen]-7′-yl)ethyl methanesulfonate] are 0.115 nM and 2020 nM.
The corresponding values for `CO[C@@]1(CC(=O)N2CCCC2)/C=C/C[C@H](C)[C@@H](C)S(=O)(=O)NC(=O)c2ccc3c(c2)N(C[C@@H]2CC[C@H]21)C[C@@]1(CCCc2cc(Cl)ccc21)CO3` [Example 100010, (1 S,3′R,6′R,7′S,8′E,11′S, 12′R)-6-chloro-7′-methoxy-11′,12′-dimethyl-7′-(2-oxo-2-(1-pyrrolidinyl)ethyl)-3,4-dihydro-2H, 15′H-spiro[naphthalene-1,22′-[20]oxa[13]thia[1,14]diazatetracyclo[14.7.2.0-3,6˜.0˜19,24˜]pentacosa[8,16,18,24]tetraen]-15′-one 13′,13′-dioxide] are 0.077 nM and 142 nM.
The corresponding values for `CO[C@@]1(C)/C=C/C[C@H](C)[C@@H](CCO)S(=O)(=O)NC(=O)c2ccc3c(c2)N(C[C@@H]2CC[C@H]21)C[C@@]1(CCCc2cc(Cl)ccc21)CO3` (single isomer, unassigned) [Example 100593] are 0.464 nM and 215 nM.
As for `CO[C@@]1(CN2CCN3CCC(F)(F)C[C@@H]3C2)/C=C/C[C@H](C)[C@@H](C)S(=O)(=O)NC(=O)c2ccc3c(c2)N(C[C@@H]2CC[C@H]21)C[C@@]1(CCCc2cc(Cl)ccc21)CO3` (single isomer, unassigned) [Example 288], the IC50 is 0.484 nM in experiment [1] (setting [3]) and 652 nM in experiment [2] (setting [7]).
For the compound `COCC[C@@H]1[C@@H](C)C/C=C/[C@@](CN2C[C@@H](C)N(C)[C@@H](C)C2)(OC)[C@@H]2CC[C@H]2CN2C[C@@]3(CCCc4cc(Cl)ccc43)COc3ccc(cc32)C(=O)NS1(=O)=O` [Example 191, (1S,3′R,6′R,7′R,8′E,11′S,12′R)-6-chloro-7′-methoxy-12′-(2-methoxyethyl)-11′-methyl-7′-(((3R,5S)-3,4,5-trimethyl-1-piperazinyl)methyl)-3,4-dihydro-2H,15′H-spiro[naphthalene-1,22′-[20]oxa[13]thia[1,14]diazatetracyclo [14.7.2.0~3,6~.0~19,24~]pentacosa[8,16,18,24]tetrae11]-15′-one 13′,13′-dioxide], the IC50 in experiment [1] (setting [3]) stood at 0.096 nM; in experiment [2] (setting [4]), 42 nM.
With `CC#C[C@]1(OC)/C=C/C[C@H](C)[C@@H](C)S(=O)(=O)NC(=O)c2ccc3c(c2)N(C[C@@H]2CC[C@H]21)C[C@@]1(CCCc2cc(Cl)ccc21)CO3` [Example 100501, (1S,3′R,6′R,7′S,8′E,11′S,12′R)-6-chloro-7′-methoxy-11′,12′-dimethyl-7′-(1-propyn-1-yl)-3,4-dihydro-2H,15′H-spiro[naphthalene-1,22′-[20]oxa[13]thia[1,14]diazatetracyclo [14.7.2.0~3,6~.0~19,24~]pentacosa[8,16,18,24]tetraen]-15′-one 13′,13′-dioxide], the results for the IC50 in experiment [1] (setting [5]) and in experiment [2] (setting [6]) were 0.09 nM and 518 nM, respectively.
With “(1S,3′R,6′R,7′S,8′E,11′S,12′R)-6-chloro-7′-((9aS)-hexahydropyrazino[2,1-c][1,4]oxazin-8(1H)-ylmethyl)-7′-methoxy-11′-methyl-3,4-dihydro-2H,16′H-spiro[naphthalene-1,23′-[21]oxa[27]thia[1,15]diazapentacyclo[15.7.2.1-12,15˜.0˜3,6˜.0˜20,25˜]heptacos a[8,17,19,25]tetraen]-16′-one 27′,27′-dioxide [Example 364]”, the IC50 in experiment [1] (setting [3]) is 192 nM; in experiment [2] (setting [7]) it was greater than 33300 nM.
Take `CO[C@@]1(CN2CCOC3(COC3)C2)/C=C/C[C@H](C)[C@@H](C)S(=O)(=O)NC(=O)c2ccc3c(c2)N(C[C@@H]2CC[C@H]21)C[C@@]1(CCCc2cc(Cl)ccc21)CO3` [Example 198, (1S,3′R,6′R,7′S,8′E,11′S,12′R)-6-chloro-7′-(2,5-dioxa-8-azaspiro[3.5]non-8-ylmethyl)-7′-methoxy-11′,12′-dimethyl-3,4-dihydro-2H,15′H-spiro[naphthalene-1,22′-[20]oxa[13]thia[1,14]diazatetracyclo [14.7.2.0~3,6~.0~19,24~]pentacosa[8,16,18,24]tetraen]-15′-one 13′,13′-dioxide]: the IC50 in experiment [1] (setting [3]) came out at 0.181 nM; in experiment [2] (setting [4]), 1310 nM.
